Measured values: patent US10047089B2, “Dihydro-6-azaphenalene derivatives for the treatment of CNS, oncological diseases and related disorders” (Collaborative Medicinal Development, LLC, priority 2012, dated 2018)

Columns and labels:
Aß = biological target: T1, Aß (Homo sapiens, UniProt P05067); experiment: Bis-ANS fluorescence assay: inhibition (prevention) of zinc induced Aß aggregation; format: biochemical; conditions: bisANS assay, soluble Aß plus added zinc (FIG. 1, dotted arrow)
T1 construct: Effect of bis-ANS on Aβ1-42 Solubility and Precipitation by Zn^2+
Text: (§1) Measurement of inhibition or reversal of protein aggregation may be carried out using such assays as Bis-ANS Fluorescence as described in, for example, W. T. Chen et al., J. Biol. Chem, 2011, 286 (11), 9646, or thioflavin T assay as disclosed herein. FIG. 1 depicts the measurement of aggregation prevention by added zinc and disaggregation of zinc induced aggregates by AC047 in a bisANS assay. In the presence of soluble Aß, zinc induces aggregation within milliseconds. This aggregation is detected by an increase in bisANS fluorescence. An excess of EDTA serves as a control by binding zinc and preventing aggregation. Both prevention of aggregation and disaggregation can be detected in the assay. […] The compounds described above were evaluated for the inhibition and reversal of protein aggregation as carried out using such assays as Bis-ANS Fluorescence as described in, for example, J. Biol. Chem, 2011, 286 (11), 9646. All compounds prepared above were measured to show EC50 between 0.000001 to 0.10 mM in both assays in the presence of Zinc (II). Aβ1-42 (25 μM) in Tris-HCl buffer (50 mM, pH7.4) was incubated at RT for 10 min in the presence or absence of ZnCl2 (25 μM) and bis-ANS (50 μM). […] A sample of the supernatant was then collected and compared by dot blot for peptide content to the sample of starting material to quantify how much original peptide had been lost due to precipitation.

[1] = biological target: T2, zinc induced Aß aggregates (Homo sapiens, UniProt P05067); experiment: Bis-ANS fluorescence assay: reversal (disaggregation) of zinc induced Aß aggregates; format: biochemical; conditions: bisANS assay, zinc induced aggregates (FIG. 1, solid arrow)
T2 construct: Effect of bis-ANS on Aβ1-42 Solubility and Precipitation by Zn^2+
Text: as §1

T1 sequence (P05067 672-713): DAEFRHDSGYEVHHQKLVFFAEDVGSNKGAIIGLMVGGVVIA
T2 sequence (P05067 672-713): as above

In the case of `O=C1c2ccnc3c(O)ccc(c23)C(=O)N1Cc1ccccc1` [AC047, 5-benzyl-9-hydroxy-4H-benzo[de][2,6]naphthyridine-4,6(5H)-dione], the “prevention of zinc induced aggregation” value (Aß) was “can prevent zinc induced aggregation” and the “elimination of zinc induced Aß aggregates (disaggregation)” value [1] was “can eliminate zinc induced Aß aggregates”.
